The text below walks through data of ChEMBL document CHEMBL1145879, “Phosphonooxymethyl prodrugs of the broad spectrum antifungal azole, ravuconazole: synthesis and biological properties” (Bioorg Med Chem Lett, 2003).

Values after ≈ are worked out from the molar mass of the structure shown. Where only a bound is given, the exact number is not on record here.

The solubility is how much of the substance goes into solution per volume. Read a high solubility as much dissolved substance.

Assay type in all cases: physicochemical
A short description of data set [1]: Aqueous solubility at pH 6.6.
Data set [2] in a line: Aqueous solubility at pH 7.
The nature of data set [3]: Aqueous solubility was determined. The conditions noted are these: buffer.

`C[C@@H](c1nc(-c2ccc(C#N)cc2)cs1)[C@](O)(Cn1c[n+](COP(=O)([O-])O)cn1)c1ccc(F)cc1F` had a solubility in data set [1] above 30 µg/mL.
`C[C@@H](c1nc(-c2ccc(C#N)cc2)cs1)[C@@](Cn1cncn1)(OCOP(=O)(O)O)c1ccc(F)cc1F` [FOSRAVUCONAZOLE]: in data set [2], the solubility is above 30 µg/mL.
Turning to `C[C@@H](c1nc(-c2ccc(C#N)cc2)cs1)[C@](O)(Cn1cncn1)c1ccc(F)cc1F` [RAVUCONAZOLE], the solubility in data set [3] amounted to 0.6 µg/mL (≈ 1.37 µM).
